Results as given in ChEMBL document CHEMBL1201862, “PubChem BioAssay data set” (2004).
Activity calls are given as the source filed them.

Experiments:
Type in all cases: functional
[1] = biological target: Glucose-6-phosphate 1-dehydrogenase (Homo sapiens, UniProt P11413); experiment: human G6PD enzyme inhibitors, dose response, selectivity assay for P. falciparum G6PD inhibitor project, biochemical, fluorescence (AID 504792)
[2] = biological target: Hexokinase-1 (Homo sapiens, UniProt P19367); experiment: hexokinase 1 activators, dose response, selectivity assay for HKDC1 activator project, biochemical (AID 504762)
[3] = biological target: T1, Hexokinase HKDC1 (Homo sapiens, UniProt Q2TB90); experiment: HKDC1 hexokinase activators, dose response, biochemical, W721R variant (AID 504730)
T1 sequence (Q2TB90 whole entry): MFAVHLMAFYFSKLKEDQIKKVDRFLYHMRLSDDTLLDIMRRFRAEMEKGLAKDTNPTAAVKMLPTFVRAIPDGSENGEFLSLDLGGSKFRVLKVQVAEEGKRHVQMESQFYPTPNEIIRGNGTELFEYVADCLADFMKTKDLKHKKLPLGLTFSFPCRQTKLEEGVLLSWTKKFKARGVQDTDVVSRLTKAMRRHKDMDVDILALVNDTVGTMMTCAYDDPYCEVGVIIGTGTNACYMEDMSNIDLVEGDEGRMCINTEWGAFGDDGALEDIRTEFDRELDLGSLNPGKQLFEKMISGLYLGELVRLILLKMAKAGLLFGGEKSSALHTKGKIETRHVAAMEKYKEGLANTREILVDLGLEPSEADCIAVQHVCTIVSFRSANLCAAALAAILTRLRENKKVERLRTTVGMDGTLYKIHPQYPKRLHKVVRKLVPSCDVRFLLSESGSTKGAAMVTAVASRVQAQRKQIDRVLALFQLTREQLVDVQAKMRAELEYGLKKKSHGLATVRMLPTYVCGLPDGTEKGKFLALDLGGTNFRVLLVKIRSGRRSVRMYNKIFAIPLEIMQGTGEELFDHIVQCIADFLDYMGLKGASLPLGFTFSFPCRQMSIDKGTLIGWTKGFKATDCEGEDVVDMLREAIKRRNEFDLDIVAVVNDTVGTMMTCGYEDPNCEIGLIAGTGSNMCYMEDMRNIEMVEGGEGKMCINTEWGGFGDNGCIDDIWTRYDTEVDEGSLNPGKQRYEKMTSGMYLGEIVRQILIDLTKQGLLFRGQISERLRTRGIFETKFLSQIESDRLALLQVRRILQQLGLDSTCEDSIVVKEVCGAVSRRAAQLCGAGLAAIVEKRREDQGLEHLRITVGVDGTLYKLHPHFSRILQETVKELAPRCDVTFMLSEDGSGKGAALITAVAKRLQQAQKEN

[4] = biological target: T2, Tyrosine-protein phosphatase non-receptor type 22 (Homo sapiens, UniProt Q9Y2R2)
T2 sequence (Q9Y2R2 whole entry): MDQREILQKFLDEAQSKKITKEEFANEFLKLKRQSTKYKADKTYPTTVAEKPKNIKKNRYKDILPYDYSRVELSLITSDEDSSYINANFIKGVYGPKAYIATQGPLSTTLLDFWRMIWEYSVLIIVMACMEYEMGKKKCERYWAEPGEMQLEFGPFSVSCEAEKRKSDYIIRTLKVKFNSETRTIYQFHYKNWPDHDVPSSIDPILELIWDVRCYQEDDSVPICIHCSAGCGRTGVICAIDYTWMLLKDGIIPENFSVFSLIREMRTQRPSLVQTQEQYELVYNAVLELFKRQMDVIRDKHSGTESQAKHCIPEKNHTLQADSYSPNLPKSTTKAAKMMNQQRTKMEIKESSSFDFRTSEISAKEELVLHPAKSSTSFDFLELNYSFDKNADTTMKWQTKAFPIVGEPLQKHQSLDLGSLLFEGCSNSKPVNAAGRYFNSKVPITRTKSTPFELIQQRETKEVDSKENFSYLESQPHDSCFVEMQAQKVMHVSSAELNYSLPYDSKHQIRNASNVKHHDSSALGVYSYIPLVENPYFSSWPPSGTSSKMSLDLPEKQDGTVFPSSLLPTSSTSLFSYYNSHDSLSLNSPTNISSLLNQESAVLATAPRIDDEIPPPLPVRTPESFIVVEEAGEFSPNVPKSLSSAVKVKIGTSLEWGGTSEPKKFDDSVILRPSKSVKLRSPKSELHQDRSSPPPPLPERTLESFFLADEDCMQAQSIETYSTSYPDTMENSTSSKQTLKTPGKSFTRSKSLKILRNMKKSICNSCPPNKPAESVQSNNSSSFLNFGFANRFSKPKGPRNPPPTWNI

[5] = biological target: T3, Tyrosine-protein phosphatase non-receptor type 7 (Homo sapiens, UniProt P35236)
T3 sequence (P35236 whole entry): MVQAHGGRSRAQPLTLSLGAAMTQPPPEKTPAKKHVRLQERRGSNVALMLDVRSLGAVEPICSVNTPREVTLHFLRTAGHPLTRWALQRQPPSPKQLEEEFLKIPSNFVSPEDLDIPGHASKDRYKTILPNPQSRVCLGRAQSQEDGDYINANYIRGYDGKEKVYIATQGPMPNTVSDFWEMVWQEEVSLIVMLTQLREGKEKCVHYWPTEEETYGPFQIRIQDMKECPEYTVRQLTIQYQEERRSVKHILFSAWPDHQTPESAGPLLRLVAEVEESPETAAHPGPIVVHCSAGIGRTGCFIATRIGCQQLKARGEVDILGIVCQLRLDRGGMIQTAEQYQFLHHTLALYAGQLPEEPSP

[6] = biological target: T2, Tyrosine-protein phosphatase non-receptor type 22; remark: listed apart in the source
[7] = biological target: T4, G-protein coupled receptor 35 (Homo sapiens, UniProt Q9HC97); experiment: SAR analysis of Agonists of the GPR35 Receptor using an Image-Based Assay - Set 4. [Related pubchem assays (depositor defined):AID2013, AID2026]
[8] = biological target: T5, Cannabinoid receptor 1 (Homo sapiens, UniProt P21554); experiment: SAR analysis of antagonists of the Cannabinoid Receptor 1 using an Image-Based Assay - Set 4. [Related pubchem assays (depositor defined):AID2013, AID2026]
[9] = biological target: T6, Cannabinoid receptor 2 (Homo sapiens, UniProt P34972); experiment: SAR analysis of antagonists of the Cannabinoid Receptor 2 using an Image-Based Assay - Set 3. [Related pubchem assays (depositor defined):AID2013, AID2026]
[10] = biological target: T4, G-protein coupled receptor 35; experiment: SAR analysis of Antagonists of the GPR35 Receptor using an Image-Based Assay - Set 6. [Related pubchem assays (depositor defined):AID2013, AID2026]
[11] = biological target: T5, Cannabinoid receptor 1; experiment: SAR analysis of agonists of the Cannabinoid Receptor 1 using an Image-Based Assay - Set 4. [Related pubchem assays (depositor defined):AID2013, AID2026]
[12] = biological target: T6, Cannabinoid receptor 2; experiment: SAR analysis of agonists of the Cannabinoid Receptor 2 using an Image-Based Assay - Set 3. [Related pubchem assays (depositor defined):AID2013, AID2026]
[13] = biological target: G-protein coupled receptor 55 (Homo sapiens, UniProt Q9Y2T6); experiment: SAR Analysis of Selective Antagonists of GPR55 using an Image-Based Assay - Set 4. [Related pubchem assays (depositor defined):AID2013, AID2026];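 note: antagonism of response to 5 µM lysophosphatidylinositol agonist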
G-protein coupled receptor 55, sequence (Q9Y2T6 whole entry): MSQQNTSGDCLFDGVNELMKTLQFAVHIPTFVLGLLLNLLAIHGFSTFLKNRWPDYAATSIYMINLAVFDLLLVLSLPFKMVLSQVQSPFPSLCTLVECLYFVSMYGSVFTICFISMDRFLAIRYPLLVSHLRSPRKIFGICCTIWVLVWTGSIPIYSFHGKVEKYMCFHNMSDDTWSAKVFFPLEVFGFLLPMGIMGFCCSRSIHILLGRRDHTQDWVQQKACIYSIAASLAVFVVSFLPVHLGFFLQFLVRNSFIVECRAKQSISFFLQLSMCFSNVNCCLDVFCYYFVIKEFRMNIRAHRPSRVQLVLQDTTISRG

T4 sequence (Q9HC97 whole entry): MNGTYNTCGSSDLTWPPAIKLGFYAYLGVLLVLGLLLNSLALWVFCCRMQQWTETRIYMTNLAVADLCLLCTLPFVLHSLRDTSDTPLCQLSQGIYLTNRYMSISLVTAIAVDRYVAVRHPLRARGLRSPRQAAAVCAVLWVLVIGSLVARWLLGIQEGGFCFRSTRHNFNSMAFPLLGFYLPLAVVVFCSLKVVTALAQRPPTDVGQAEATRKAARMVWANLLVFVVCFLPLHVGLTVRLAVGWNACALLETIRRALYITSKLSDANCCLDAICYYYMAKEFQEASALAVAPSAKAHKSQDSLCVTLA
T6 sequence (P34972 whole entry): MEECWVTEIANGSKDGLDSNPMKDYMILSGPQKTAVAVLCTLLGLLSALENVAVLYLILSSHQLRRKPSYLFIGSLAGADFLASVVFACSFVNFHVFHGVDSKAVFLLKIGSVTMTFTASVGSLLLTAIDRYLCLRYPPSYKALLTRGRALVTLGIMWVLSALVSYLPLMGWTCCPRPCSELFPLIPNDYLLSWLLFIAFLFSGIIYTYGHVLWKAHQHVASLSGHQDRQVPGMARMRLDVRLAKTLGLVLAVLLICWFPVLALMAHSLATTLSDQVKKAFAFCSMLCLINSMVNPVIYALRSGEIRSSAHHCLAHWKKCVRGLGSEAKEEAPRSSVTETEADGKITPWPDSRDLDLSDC
T5 sequence (P21554 whole entry): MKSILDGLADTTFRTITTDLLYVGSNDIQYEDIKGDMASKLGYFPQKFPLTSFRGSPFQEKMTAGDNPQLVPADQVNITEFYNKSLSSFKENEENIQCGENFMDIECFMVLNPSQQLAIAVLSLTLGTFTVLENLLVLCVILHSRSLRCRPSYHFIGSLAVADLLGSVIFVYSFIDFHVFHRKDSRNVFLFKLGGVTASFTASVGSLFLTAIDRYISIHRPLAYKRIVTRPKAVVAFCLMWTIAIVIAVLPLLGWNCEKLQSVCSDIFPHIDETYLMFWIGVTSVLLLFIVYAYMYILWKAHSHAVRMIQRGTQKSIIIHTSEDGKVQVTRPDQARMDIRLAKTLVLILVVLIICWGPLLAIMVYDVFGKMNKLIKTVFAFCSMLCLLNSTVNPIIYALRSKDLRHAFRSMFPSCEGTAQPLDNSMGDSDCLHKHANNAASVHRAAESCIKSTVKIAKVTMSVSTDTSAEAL
Glucose-6-phosphate 1-dehydrogenase, sequence (P11413 whole entry): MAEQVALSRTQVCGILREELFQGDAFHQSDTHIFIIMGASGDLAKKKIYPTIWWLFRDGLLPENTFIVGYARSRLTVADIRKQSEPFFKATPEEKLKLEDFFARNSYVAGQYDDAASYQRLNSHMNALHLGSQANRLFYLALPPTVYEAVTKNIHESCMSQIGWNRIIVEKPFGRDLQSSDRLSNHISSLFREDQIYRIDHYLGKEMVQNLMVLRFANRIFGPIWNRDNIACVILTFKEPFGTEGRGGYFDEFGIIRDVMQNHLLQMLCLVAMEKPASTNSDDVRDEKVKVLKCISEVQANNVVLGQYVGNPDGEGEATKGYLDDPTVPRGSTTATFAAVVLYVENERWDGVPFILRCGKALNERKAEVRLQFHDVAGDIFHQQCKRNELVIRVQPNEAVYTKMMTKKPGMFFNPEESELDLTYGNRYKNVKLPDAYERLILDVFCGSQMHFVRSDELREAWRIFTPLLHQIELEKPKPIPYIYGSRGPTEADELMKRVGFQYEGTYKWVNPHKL
Hexokinase-1, sequence (P19367 whole entry): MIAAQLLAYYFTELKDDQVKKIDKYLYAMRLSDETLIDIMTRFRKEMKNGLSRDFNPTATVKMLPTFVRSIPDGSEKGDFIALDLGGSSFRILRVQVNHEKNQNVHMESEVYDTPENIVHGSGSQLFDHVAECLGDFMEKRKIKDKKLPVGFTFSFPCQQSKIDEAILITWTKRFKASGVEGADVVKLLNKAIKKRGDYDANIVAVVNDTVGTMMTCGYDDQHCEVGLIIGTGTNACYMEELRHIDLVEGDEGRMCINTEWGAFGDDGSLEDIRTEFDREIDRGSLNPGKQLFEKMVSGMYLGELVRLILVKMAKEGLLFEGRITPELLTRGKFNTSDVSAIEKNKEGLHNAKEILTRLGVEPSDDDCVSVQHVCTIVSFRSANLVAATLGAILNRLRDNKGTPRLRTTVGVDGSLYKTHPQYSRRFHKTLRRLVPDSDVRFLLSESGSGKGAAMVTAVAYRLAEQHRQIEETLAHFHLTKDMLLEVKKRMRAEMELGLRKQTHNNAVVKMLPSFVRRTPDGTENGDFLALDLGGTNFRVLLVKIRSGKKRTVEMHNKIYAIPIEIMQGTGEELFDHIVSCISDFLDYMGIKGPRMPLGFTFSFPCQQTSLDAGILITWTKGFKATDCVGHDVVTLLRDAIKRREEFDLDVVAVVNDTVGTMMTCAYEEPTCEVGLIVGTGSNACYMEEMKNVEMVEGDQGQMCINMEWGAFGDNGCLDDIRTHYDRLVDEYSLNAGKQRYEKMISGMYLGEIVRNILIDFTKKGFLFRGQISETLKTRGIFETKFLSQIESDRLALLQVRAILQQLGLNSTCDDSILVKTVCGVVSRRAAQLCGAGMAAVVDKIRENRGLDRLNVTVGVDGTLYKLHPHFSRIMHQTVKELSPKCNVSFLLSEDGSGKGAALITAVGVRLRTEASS

For O=C(Nc1ccc(N2CCCC2)cc1)c1cccc(-c2cc3ccccc3oc2=O)c1, the IC50 [1] was > 80 µM (inactive), the EC50 [2] was > 80 µM (inactive) and the EC50 [3] was 13.6 µM (active).
For COc1ccc(N(CC(=O)NC(C)C)C(=O)CCC(=O)Nc2ccccn2)cc1, the IC50 [4] was > 79.4 µM (inactive), the IC50 [5] was > 79.4 µM (inactive) and the IC50 [6] was > 79.4 µM (inactive).
NC(=O)Nc1ccccc1C(=O)NCCc1ccccc1 was tested, and the IC50 [4] was > 79.4 µM (inactive), the IC50 [5] was > 79.4 µM (inactive) and the IC50 [6] was > 79.4 µM (inactive).
In the case of COc1ccc(-n2cc3c(-c4cccc(Br)c4)nnc(C)c3n2)cc1, the EC50 [7] was > 32 µM (inactive), the IC50 [8] was 0.946 µM (active) and the IC50 [9] was 5.4 µM (active). For the same molecule, the IC50 [10] was > 32 µM (inactive), the EC50 [11] was > 32 µM (inactive) and the EC50 [12] was > 32 µM (inactive). For the same molecule, the IC50 [13] was 8.04 µM (active).
